# Experimental data published in article PMC11995216, “End-to-End Backbone Cyclization Enhances Passive Permeability of bRo5 Oligomeric Depsipeptides with Nonlinear Size Dependence” (ACS Medicinal Chemistry Letters, 2025).
# Several values for one entry are separate records, joined by “and”; a condition that tells them apart may be missing. Identical values can stand only once. Like-named read-outs stand apart in the source and are kept apart here.
# Assays:
# PAMPA [1] = test system: PAMPA
# PAMPA [2] = settings: calculated using Supplement Equation 1, UV detection
# PAMPA [3] = test system: PAMPA; remark: listed apart in the source
# PAMPA [4] = test system: PAMPA; remark: listed apart in the source
# PAMPA [5] = test system: PAMPA; remark: listed apart in the source
# PAMPA [6] = settings: UV detection
# [7] = PAMPA, permeability assay across an artificial membrane; settings: for Acceptor Concentration, Ave: after incubation
# [8] = Acceptor Concentration (uM) – ELSD Detection / [row 1]
# [9] = Acceptor Concentration (uM) – ELSD Detection / [row 2]
# [10] = Acceptor Concentration (uM) – ELSD Detection / [row 3]
# [11] = Acceptor Concentration (uM) – ELSD Detection / [row 4]
# [12] = Acceptor Concentration (uM) – ELSD Detection / [row 5]
# [13] = Acceptor Concentration (uM) – ELSD Detection / [row 6]
# [14] = Acceptor Concentration (uM) – ELSD Detection / [row 7]
# [15] = Acceptor Concentration (uM) – ELSD Detection / [row 8]
# [16] = Acceptor Concentration (uM) – ELSD Detection / [row 9]
# [17] = Acceptor Concentration (uM) – ELSD Detection / [row 10]
# [18] = Acceptor Concentration (uM) – UV Detection / [row 1]
# [19] = Acceptor Concentration (uM) – UV Detection / [row 2]
# [20] = Acceptor Concentration (uM) – UV Detection / [row 4]
# [21] = Acceptor Concentration (uM) – UV Detection / [row 5]
# [22] = Acceptor Concentration (uM) – UV Detection / [row 6]
# [23] = Acceptor Concentration (uM) – UV Detection / [row 7]
# [24] = Acceptor Concentration (uM) – UV Detection / [row 8]
# [25] = Acceptor Concentration (uM) – UV Detection / [row 9]
# [26] = Acceptor Concentration (uM) – UV Detection / [row 10]
# [27] = Papp (x 10^-6 cm/s) – ELSD Detection / [row 2], ELSD Detection
# [28] = Papp (x 10^-6 cm/s) – ELSD Detection / [row 3], ELSD Detection
# [29] = Papp (x 10^-6 cm/s) – ELSD Detection / [row 4], ELSD Detection
# [30] = Papp (x 10^-6 cm/s) – ELSD Detection / [row 5], ELSD Detection
# [31] = Papp (x 10^-6 cm/s) – ELSD Detection / [row 6], ELSD Detection
# [32] = Papp (x 10^-6 cm/s) – ELSD Detection / [row 7], ELSD Detection
# [33] = Papp (x 10^-6 cm/s) – ELSD Detection / [row 8], ELSD Detection
# [34] = Papp (x 10^-6 cm/s) – ELSD Detection / [row 9], ELSD Detection
# [35] = Papp (x 10^-6 cm/s) – ELSD Detection / [row 10], ELSD Detection
# [36] = Papp (x 10^-6 cm/s) – UV Detection / [row 1], UV Detection
# [37] = Papp (x 10^-6 cm/s) – UV Detection / [row 2], UV Detection
# [38] = Papp (x 10^-6 cm/s) – UV Detection / [row 3], UV Detection
# [39] = Papp (x 10^-6 cm/s) – UV Detection / [row 4], UV Detection
# [40] = Papp (x 10^-6 cm/s) – UV Detection / [row 6], UV Detection
# [41] = Papp (x 10^-6 cm/s) – UV Detection / [row 7], UV Detection
# [42] = Papp (x 10^-6 cm/s) – UV Detection / [row 8], UV Detection
# [43] = Papp (x 10^-6 cm/s) – UV Detection / [row 9], UV Detection
# [44] = Papp (x 10^-6 cm/s) – UV Detection / [row 10], UV Detection
compound,measurement,setting,value
CCCCC[C@@H]1OC(=O)[C@@H](C)N(C)C(=O)[C@H](CCCCC)OC(=O)[C@@H](C)N(C)C(=O)[C@H](CCCCC)OC(=O)[C@@H](C)N(C)C(=O)[C@H](CCCCC)OC(=O)[C@@H](C)N(C)C(=O)[C@H](CCCCC)OC(=O)[C@@H](C)N(C)C1=O [Compound C1.5],Acceptor Concentration,PAMPA [1]; [8],67.5 µM
same,Acceptor Concentration,PAMPA [1]; [9],63.9 µM
same,Acceptor Concentration,PAMPA [1]; [10],64.8 µM
same,Acceptor Concentration,PAMPA [1]; [11],62.3 µM
same,Acceptor Concentration,PAMPA [1]; [12],65.1 µM
same,Acceptor Concentration,PAMPA [1]; [13],65 µM
same,Acceptor Concentration,PAMPA [1]; [14],68.5 µM
same,Acceptor Concentration,PAMPA [1]; [15],67.7 µM
same,Acceptor Concentration,PAMPA [1]; [16],61.3 µM
same,Acceptor Concentration,PAMPA [1]; [17],66.1 µM
same,Acceptor Concentration,PAMPA [1]; [18],66.6 µM
same,Acceptor Concentration,PAMPA [1]; [19],60.4 µM
same,Acceptor Concentration,PAMPA [1]; [20],56.7 µM
same,Acceptor Concentration,PAMPA [1]; [21],61.9 µM
same,Acceptor Concentration,PAMPA [1]; [22],71.3 µM
same,Acceptor Concentration,PAMPA [1]; [23],64.8 µM
same,Acceptor Concentration,PAMPA [1]; [24],71.7 µM
same,Acceptor Concentration,PAMPA [1]; [25],73.6 µM
same,Acceptor Concentration,PAMPA [1]; [26],71.6 µM
same,%T,"PAMPA [2]; Well 1 / %T, Well 1",0.44% and 0.46%
same,%T,"PAMPA [2]; Well 2 / %T, Well 2",0.42% and 0.43%
same,%T,"PAMPA [2]; Well 3 / %T, Well 3",0.42% and 0.47%
same,%T,"PAMPA [2]; Well 4 / %T, Well 4",0.39% and 0.47%
same,%T,"PAMPA [2]; Well 5 / %T, Well 5",0.42% and 0.47%
same,acceptor concentration after incubation,PAMPA [3]; Well 5 / [acc],61.8 µM
same,donor concentration after incubation,PAMPA [4]; Well 1 / [donor],379 µM and 372 µM
same,donor concentration after incubation,PAMPA [4]; Well 2 / [donor],370 µM and 384 µM
same,donor concentration after incubation,PAMPA [4]; Well 3 / [donor],400 µM and 367 µM
same,donor concentration after incubation,PAMPA [4]; Well 4 / [donor],389 µM and 372 µM
same,donor concentration after incubation,PAMPA [4]; Well 5 / [donor],376 µM and 362 µM
same,Papp,PAMPA [5]; [27],2.93 ×10⁻⁶ cm/s
same,Papp,PAMPA [5]; [28],2.62 ×10⁻⁶ cm/s
same,Papp,PAMPA [5]; [29],2.78 ×10⁻⁶ cm/s
same,Papp,PAMPA [5]; [30],3.09 ×10⁻⁶ cm/s
same,Papp,PAMPA [5]; [31],2.8 ×10⁻⁶ cm/s
same,Papp,PAMPA [5]; [32],3.15 ×10⁻⁶ cm/s
same,Papp,PAMPA [5]; [33],2.83 ×10⁻⁶ cm/s
same,Papp,PAMPA [5]; [34],2.67 ×10⁻⁶ cm/s
same,Papp,PAMPA [5]; [35],3.08 ×10⁻⁶ cm/s
same,Papp,PAMPA [5]; [36],3.3 ×10⁻⁶ cm/s
same,Papp,PAMPA [5]; [37],3.13 ×10⁻⁶ cm/s
same,Papp,PAMPA [5]; [38],3.08 ×10⁻⁶ cm/s
same,Papp,PAMPA [5]; [39],2.85 ×10⁻⁶ cm/s
same,Papp,"PAMPA [5]; Papp (x 10^-6 cm/s) – UV Detection / [row 5], UV Detection",3.14 ×10⁻⁶ cm/s
same,Papp,PAMPA [5]; [40],3.54 ×10⁻⁶ cm/s
same,Papp,PAMPA [5]; [41],3.19 ×10⁻⁶ cm/s
same,Papp,PAMPA [5]; [42],3.6 ×10⁻⁶ cm/s
same,Papp,PAMPA [5]; [43],3.64 ×10⁻⁶ cm/s
same,Papp,PAMPA [5]; [44],3.64 ×10⁻⁶ cm/s
same,% recovery,"PAMPA [6]; Well 2 / %R, Well 2",86% and 90%
same,% recovery,"PAMPA [6]; Well 3 / %R, Well 3",93% and 88%
same,% recovery,"PAMPA [6]; Well 5 / %R, Well 5",88% and 87%
CCCCC[C@@H]1OC(=O)[C@@H](C)N(C)C(=O)[C@H](CCCCC)OC(=O)[C@@H](C)N(C)C(=O)[C@H](CCCCC)OC(=O)[C@@H](C)N(C)C(=O)[C@H](CCCCC)OC(=O)[C@@H](C)N(C)C(=O)[C@H](CCCCC)OC(=O)[C@@H](C)N(C)C(=O)[C@H](CCCCC)OC(=O)[C@@H](C)N(C)C1=O [Compound C1.6],Acceptor Concentration,PAMPA [1]; [8],27.2 µM
same,Acceptor Concentration,PAMPA [1]; [9],30 µM
same,Acceptor Concentration,PAMPA [1]; [10],25.6 µM
same,Acceptor Concentration,PAMPA [1]; [11],29.3 µM
same,Acceptor Concentration,PAMPA [1]; [12],27.1 µM
same,Acceptor Concentration,PAMPA [1]; [13],45.6 µM
same,Acceptor Concentration,PAMPA [1]; [14],39.3 µM
same,Acceptor Concentration,PAMPA [1]; [15],42.2 µM
same,Acceptor Concentration,PAMPA [1]; [16],25.8 µM
same,Acceptor Concentration,PAMPA [1]; [17],46.7 µM
same,Acceptor Concentration,PAMPA [1]; [18],38.6 µM
same,Acceptor Concentration,PAMPA [1]; [19],37.6 µM
same,Acceptor Concentration,PAMPA [1]; Acceptor Concentration (uM) – UV Detection / [row 3],33.9 µM
same,Acceptor Concentration,PAMPA [1]; [20],31.6 µM
same,Acceptor Concentration,PAMPA [1]; [21],37 µM
same,Acceptor Concentration,PAMPA [1]; [22],51.1 µM
same,Acceptor Concentration,PAMPA [1]; [23],41.4 µM
same,Acceptor Concentration,PAMPA [1]; [24],41.9 µM
same,Acceptor Concentration,PAMPA [1]; [25],49 µM
same,Acceptor Concentration,PAMPA [1]; [26],37.4 µM
same,Diffusion (%),"[7]; PAMPA percent diffusion, C0 500 uM",6.78% and 7% and 6.8 ± 1.7%
same,Recovery (%),"[7]; PAMPA, (acceptor + donor)/total analyte, C0 500 uM",90%
same,Papp at 500 uM,"[7]; PAMPA, Ave, ELSD detection, C0 500 uM",1.9 ×10⁻⁶ cm/s
same,Papp at 500 uM,"[7]; PAMPA, ratio-based method, mean ± SD, C0 500 uM, UV detection",2 ± 0.23 ×10⁻⁶ cm/s
same,recovery at 500 uM,"[7]; PAMPA, Recovery (%), PAMPA, (acceptor + donor)/total analyte, C0 500 uM",89.7%
same,"Acceptor Concentration, Ave","[7]; PAMPA, ELSD detection, C0 500 uM",33.9 µM
same,"Acceptor Concentration, Ave","[7]; PAMPA, UV detection, C0 500 uM",39.95 µM
same,Δ % diffusion,[7]; increase: difference between percent diffusion of macrocycle vs linear counterpart,↑2%
same,%T,"PAMPA [2]; Well 1 / %T, Well 1",0.63% and 0.58%
same,%T,"PAMPA [2]; Well 2 / %T, Well 2",0.65% and 0.63%
same,%T,"PAMPA [2]; Well 3 / %T, Well 3",0.63% and 0.59%
same,%T,"PAMPA [2]; Well 4 / %T, Well 4",0.66% and 0.6%
same,%T,"PAMPA [2]; Well 5 / %T, Well 5",0.62% and 0.63%
same,acceptor concentration after incubation,PAMPA [3]; Well 1 / [acc],38.6 µM and 51.1 µM
same,acceptor concentration after incubation,PAMPA [3]; Well 2 / [acc],37.6 µM and 41.4 µM
same,acceptor concentration after incubation,PAMPA [3]; Well 3 / [acc],41.9 µM
same,acceptor concentration after incubation,PAMPA [3]; Well 4 / [acc],31.6 µM and 49.1 µM
same,acceptor concentration after incubation,PAMPA [3]; Well 5 / [acc],37.4 µM
same,donor concentration after incubation,PAMPA [4]; Well 1 / [donor],407 µM and 377 µM
same,donor concentration after incubation,PAMPA [4]; Well 2 / [donor],404 µM and 445 µM
same,donor concentration after incubation,PAMPA [4]; Well 3 / [donor],368 µM and 446 µM
same,donor concentration after incubation,PAMPA [4]; Well 4 / [donor],379 µM and 438 µM
same,donor concentration after incubation,PAMPA [4]; Well 5 / [donor],406 µM and 417 µM
same,Papp,PAMPA [5]; [27],1.94 ×10⁻⁶ cm/s
same,Papp,PAMPA [5]; [28],1.99 ×10⁻⁶ cm/s
same,Papp,PAMPA [5]; [29],1.87 ×10⁻⁶ cm/s
same,Papp,PAMPA [5]; [30],1.89 ×10⁻⁶ cm/s
same,Papp,PAMPA [5]; [31],1.93 ×10⁻⁶ cm/s
same,Papp,PAMPA [5]; [32],1.88 ×10⁻⁶ cm/s
same,Papp,PAMPA [5]; [33],1.91 ×10⁻⁶ cm/s
same,Papp,PAMPA [5]; [34],1.8 ×10⁻⁶ cm/s
same,Papp,PAMPA [5]; [35],1.92 ×10⁻⁶ cm/s
same,Papp,PAMPA [5]; [36],1.95 ×10⁻⁶ cm/s
same,Papp,PAMPA [5]; [37],1.93 ×10⁻⁶ cm/s
same,Papp,PAMPA [5]; [38],1.95 ×10⁻⁶ cm/s
same,Papp,PAMPA [5]; [39],1.81 ×10⁻⁶ cm/s
same,Papp,PAMPA [5]; [40],2.59 ×10⁻⁶ cm/s
same,Papp,PAMPA [5]; [41],1.89 ×10⁻⁶ cm/s
same,Papp,PAMPA [5]; [42],1.91 ×10⁻⁶ cm/s
same,Papp,PAMPA [5]; [43],2.19 ×10⁻⁶ cm/s
same,Papp,PAMPA [5]; [44],1.87 ×10⁻⁶ cm/s
same,% recovery,"PAMPA [6]; Well 1 / %R, Well 1",89% and 86%
same,% recovery,"PAMPA [6]; Well 2 / %R, Well 2",88% and 97%
same,% recovery,"PAMPA [6]; Well 3 / %R, Well 3",80% and 98%
same,% recovery,"PAMPA [6]; Well 4 / %R, Well 4",82% and 97%
same,% recovery,"PAMPA [6]; Well 5 / %R, Well 5",89% and 91%
